This passage reports Emax and EC50 results from patent US20230265151A1, “GIP/GLP1 CO-AGONIST COMPOUNDS” (priority 2020, published 2023).

Format in all cases: cell-based
One assay addresses hGLP-1R (Homo sapiens, UniProt P43220). As to the kind of experiment: Functional cAMP formation (HTRF) in HEK-293 clonal cells expressing hGLP-1R, 0.1% bovine casein, without or with 1.0% human serum albumin. Details: expressed in transfected cells. The following applies: for EC50: geometric mean. The method, boiled down: (§1)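 Readings of the HTRF 665/620 nm ratio, which falls as cAMP rises, were converted to nM cAMP using a standard curve after 30 min peptide exposure at 37° C.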

A further assay addresses T1, hGIPR (Homo sapiens, UniProt P48546).
T1 construct: expressed in transfected cells
T1 sequence (P48546 22-466): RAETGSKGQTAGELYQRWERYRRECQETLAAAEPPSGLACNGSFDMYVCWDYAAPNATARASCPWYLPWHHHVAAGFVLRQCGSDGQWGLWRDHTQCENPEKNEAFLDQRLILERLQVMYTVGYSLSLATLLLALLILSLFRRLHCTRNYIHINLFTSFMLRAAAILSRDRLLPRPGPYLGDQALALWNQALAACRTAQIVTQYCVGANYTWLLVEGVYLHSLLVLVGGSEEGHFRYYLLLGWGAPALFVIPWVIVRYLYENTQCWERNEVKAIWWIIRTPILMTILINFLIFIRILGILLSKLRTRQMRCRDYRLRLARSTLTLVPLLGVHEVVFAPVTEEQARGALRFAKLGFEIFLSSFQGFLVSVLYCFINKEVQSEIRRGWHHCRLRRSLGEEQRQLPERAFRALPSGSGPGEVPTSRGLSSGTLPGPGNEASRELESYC
As to the kind of experiment: Functional cAMP formation (HTRF) in HEK-293 clonal cells expressing hGIPR, 0.1% bovine casein, without or with 1.0% human serum albumin. Conditions: for EC50: geometric mean. The procedure, abridged: as §1

Another assay deals with T2, hGCGR (Homo sapiens, UniProt P47871).
T2 construct: expressed in transfected cells
The assay can be described thus: Functional cAMP formation (HTRF) in HEK-293 clonal cells expressing hGCGR, 0.1% bovine casein, without or with 1.0% human serum albumin. The following applies: geometric mean. The method, boiled down: as §1

[1] abbreviates: cAMP, 37° C., 0.1% bovine casein (no human serum albumin), read-out: hGLP-1R EC50, nM (SEM, n).
The mark [2] stands for this setting: HEK293, 0.1% bovine casein and 1.0% human serum albumin, 37° C., percent of maximal response to GIP(1-42)NH2, read-out: hGIPR Emax, % ± SEM.
Setting [3] is: cAMP, 37° C., 0.1% bovine casein (no human serum albumin), read-out: hGIPR EC50, nM (SEM, n).
Where [4] appears, read: 0.1% bovine casein and 1.0% human serum albumin, 37° C., read-out: hGCGR EC50, nM (SEM, n).
[5] abbreviates: cAMP, 37° C., 0.1% bovine casein (no human serum albumin), read-out: hGCGR EC50, nM (SEM, n).

Read-outs that look alike come from different tables or passages of the source.

T2 sequence (P47871 26-477): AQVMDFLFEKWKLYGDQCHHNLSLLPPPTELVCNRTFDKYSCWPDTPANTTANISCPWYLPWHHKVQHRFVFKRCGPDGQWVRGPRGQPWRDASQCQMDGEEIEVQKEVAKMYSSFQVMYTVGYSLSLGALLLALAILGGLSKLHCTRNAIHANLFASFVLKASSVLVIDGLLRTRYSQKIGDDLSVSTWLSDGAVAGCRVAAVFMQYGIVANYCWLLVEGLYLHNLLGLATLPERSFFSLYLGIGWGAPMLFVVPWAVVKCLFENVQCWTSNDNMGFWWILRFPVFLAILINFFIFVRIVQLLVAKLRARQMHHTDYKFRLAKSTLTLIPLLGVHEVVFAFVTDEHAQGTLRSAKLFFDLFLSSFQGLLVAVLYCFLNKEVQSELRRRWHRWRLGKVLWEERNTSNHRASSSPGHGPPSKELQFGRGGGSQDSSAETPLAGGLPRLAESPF
Sequence of hGLP-1R (P43220 24-463): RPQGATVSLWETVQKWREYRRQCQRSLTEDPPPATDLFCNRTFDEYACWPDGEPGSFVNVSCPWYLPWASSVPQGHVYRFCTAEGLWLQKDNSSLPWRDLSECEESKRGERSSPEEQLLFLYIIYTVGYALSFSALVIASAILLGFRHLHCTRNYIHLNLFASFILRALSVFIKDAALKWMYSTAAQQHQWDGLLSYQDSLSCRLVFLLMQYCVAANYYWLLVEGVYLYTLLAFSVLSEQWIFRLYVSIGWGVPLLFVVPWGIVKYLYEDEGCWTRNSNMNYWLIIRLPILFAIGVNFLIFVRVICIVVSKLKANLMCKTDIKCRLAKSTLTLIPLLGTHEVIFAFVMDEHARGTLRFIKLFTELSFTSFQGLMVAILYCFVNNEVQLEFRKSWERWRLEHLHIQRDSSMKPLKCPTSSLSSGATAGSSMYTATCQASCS

Regarding `CC[C@H](C)[C@H](NC(=O)[C@H](CCCN)NC(=O)[C@H](CC(=O)O)NC(=O)[C@H](CC(C)C)NC(=O)[C@](C)(CC(C)C)NC(=O)[C@@H](NC(=O)[C@H](CO)NC(=O)[C@H](Cc1ccncc1)NC(=O)[C@H](CC(=O)O)NC(=O)[C@H](CO)NC(=O)[C@@H](NC(=O)[C@](C)(Cc1ccccc1F)NC(=O)[C@@H](NC(=O)CNC(=O)[C@H](CCC(=O)O)NC(=O)C(C)(C)NC(=O)[C@@H](N)Cc1ccc(O)cc1)[C@@H](C)O)[C@@H](C)O)[C@@H](C)CC)C(=O)N[C@@H](C)C(=O)N[C@@H](CCC(N)=O)C(=O)NC(C)(C)C(=O)N[C@@H](CCC(=O)O)C(=O)N[C@@H](Cc1ccccc1)C(=O)N[C@H](C(=O)N[C@@H](CCCCNC(=O)COCCOCCNC(=O)COCCOCCNC(=O)CC[C@H](NC(=O)CCCCCCCCCOc1ccc(C(=O)O)cc1)C(=O)O)C(=O)N[C@@](C)(Cc1ccc(O)cc1)C(=O)N[C@@H](CC(C)C)C(=O)N[C@H](C(=O)N[C@@H](CCCCNC(=O)COCCOCCNC(=O)COCCOCCNC(=O)CC[C@H](NC(=O)CCCCCCCCCOc1ccc(C(=O)O)cc1)C(=O)O)C(=O)NCC(=O)NCC(=O)N1CCC[C@H]1C(=O)N[C@@H](CO)C(=O)N[C@@H](CO)C(=O)NCC(=O)N[C@@H](C)C(=O)N1CCC[C@H]1C(=O)N1CCC[C@H]1C(=O)N1CCC[C@H]1C(=O)N[C@@H](CO)C(N)=O)[C@@H](C)CC)[C@@H](C)CC` [Example 274], the Emax at hGLP-1R (HEK293, read-out: hGLP-1R Emax, % ± SEM, 0.1% bovine casein and 1.0% human serum albumin, 37° C., percent of maximal response to GLP-1(7-36)NH2) stood at 121%; at hGLP-1R (HEK293, read-out: hGLP-1R Emax, % ± SEM, cAMP, 37° C., 0.1% bovine casein, percent of maximal response to GLP-1(7-36)NH2, arithmetic mean) it was 114%; on hGIPR (HEK293, read-out: hGIPR Emax, % ± SEM, 0.1% bovine casein and 1.0% human serum albumin, 37° C., percent of maximal response to GIP(1-42)NH2) it was 93.5%. Besides, the half-maximal effective concentration (EC50) on hGLP-1R (hGLP-1R EC50, nM (SEM, n), cAMP, 37° C., 0.1% bovine casein (no human serum albumin)) is 0.406 nM; at hGIPR (hGIPR EC50, nM (SEM, n), cAMP, 37° C., 0.1% bovine casein (no human serum albumin)) it was 0.0226 nM; on hGCGR (hGCGR EC50, nM (SEM, n), 0.1% bovine casein and 1.0% human serum albumin, 37° C.), more than 9950 nM; at hGCGR (hGCGR EC50, nM (SEM, n), cAMP, 37° C., 0.1% bovine casein (no human serum albumin)) it was more than 9950 nM.
With `CC[C@H](C)[C@H](NC(=O)[C@H](CC(C)C)NC(=O)[C@](C)(Cc1ccc(O)cc1)NC(=O)[C@@H](CCC(=O)O)NC(=O)[C@@H](NC(=O)[C@H](Cc1ccccc1)NC(=O)[C@H](CCC(=O)O)NC(=O)C(C)(C)NC(=O)[C@H](CCC(N)=O)NC(=O)[C@H](C)NC(=O)[C@H](CCCCNC(=O)COCCOCCNC(=O)COCCOCCNC(=O)CC[C@H](NC(=O)CCCCCCCCCCCCC(=O)O)C(=O)O)NC(=O)[C@H](CCCN)NC(=O)[C@H](CC(=O)O)NC(=O)[C@H](CC(C)C)NC(=O)[C@](C)(CC(C)C)NC(=O)[C@@H](NC(=O)[C@H](CO)NC(=O)[C@H](Cc1cscn1)NC(=O)[C@H](CC(=O)O)NC(=O)[C@H](CO)NC(=O)[C@@H](NC(=O)[C@](C)(Cc1ccccc1F)NC(=O)[C@@H](NC(=O)CNC(=O)[C@H](CCC(=O)O)NC(=O)C(C)(C)NC(=O)[C@@H](N)Cc1ccc(O)cc1)[C@@H](C)O)[C@@H](C)O)[C@@H](C)CC)[C@@H](C)CC)C(=O)N[C@@H](CCC(=O)O)C(=O)NCC(=O)NCC(=O)N[C@@H](CCCCNC(=O)COCCOCCNC(=O)COCCOCCNC(=O)CC[C@H](NC(=O)CCCCCCCCCCCCC(=O)O)C(=O)O)C(=O)N[C@@H](CO)C(=O)N[C@@H](CO)C(=O)NCC(=O)N[C@@H](C)C(=O)N1CCC[C@H]1C(=O)N1CCC[C@H]1C(=O)N1CCC[C@H]1C(=O)N[C@@H](CO)C(N)=O` [Example 144], the maximal response (Emax) turned out to be 97% on hGLP-1R (HEK293, percent of maximal response to GLP-1(7-36)NH2, 37° C., 0.1% bovine casein, arithmetic mean, read-out: hGLP-1R Emax, % ± SEM) and 90% on hGIPR (HEK293, percent of maximal response to GIP(1-42)NH2, 37° C., 0.1% bovine casein, arithmetic mean, read-out: hGIPR Emax, % ± SEM). For the same molecule, the EC50 on hGLP-1R (cAMP, incubated at 37° C., 0.1% bovine casein (no human serum albumin), read-out: hGLP-1R EC50, nM (SEM, n)) was 3.47 nM; at hGIPR (cAMP, incubated at 37° C., 0.1% bovine casein (no human serum albumin), read-out: hGIPR EC50, nM (SEM, n)), 0.0193 nM; on hGCGR (cAMP, incubated at 37° C., 0.1% bovine casein (no human serum albumin), read-out: hGCGR EC50, nM (SEM, n)) it was more than 9950 nM.
`CCCCCCCCCCCC(=O)N[C@@H](CCC(=O)NCCOCCOCC(=O)NCCOCCOCC(=O)NCCCC[C@H](NC(=O)[C@H](CO)NC(=O)[C@@H]1CCCN1C(=O)[C@@H]1CCCN1C(=O)[C@@H]1CCCN1C(=O)[C@H](C)NC(=O)CNC(=O)[C@H](CO)NC(=O)[C@H](CO)NC(=O)[C@@H]1CCCN1C(=O)CNC(=O)CNC(=O)[C@H](CCC(=O)O)NC(=O)[C@@H](NC(=O)[C@H](CC(C)C)NC(=O)[C@](C)(Cc1ccc(O)cc1)NC(=O)[C@@H](CCC(=O)O)NC(=O)[C@@H](NC(=O)[C@H](Cc1ccccc1)NC(=O)[C@H](CCC(=O)O)NC(=O)C(C)(C)NC(=O)[C@H](CCC(N)=O)NC(=O)[C@H](C)NC(=O)[C@H](CCCCNC(=O)COCCOCCNC(=O)COCCOCCNC(=O)CC[C@H](NC(=O)CCCCCCCCCCC)C(=O)O)NC(=O)[C@H](CCCN)NC(=O)[C@H](CC(=O)O)NC(=O)[C@H](CC(C)C)NC(=O)[C@](C)(CC(C)C)NC(=O)[C@@H](NC(=O)[C@H](CO)NC(=O)[C@H](Cc1ccc(OC)cc1)NC(=O)[C@H](CC(=O)O)NC(=O)[C@H](CO)NC(=O)[C@@H](NC(=O)[C@](C)(Cc1ccccc1F)NC(=O)[C@@H](NC(=O)CNC(=O)[C@H](CCC(=O)O)NC(=O)C(C)(C)NC(=O)[C@@H](N)Cc1ccc(O)cc1)[C@@H](C)O)[C@@H](C)O)[C@@H](C)CC)[C@@H](C)CC)[C@@H](C)CC)C(N)=O)C(=O)O` [Example 291]: the Emax is 100% at hGLP-1R (HEK293, 0.1% bovine casein and 1.0% human serum albumin, 37° C., percent of maximal response to GLP-1(7-36)NH2, read-out: hGLP-1R Emax, % ± SEM); 97.6% at hGLP-1R (HEK293, cAMP, 37° C., 0.1% bovine casein, percent of maximal response to GLP-1(7-36)NH2, arithmetic mean, read-out: hGLP-1R Emax, % ± SEM); 92.9% at hGIPR (setting [2]). Moreover, the concentration giving a half-maximal response (EC50) at hGLP-1R (setting [1]) is 0.207 nM; at hGIPR (0.1% bovine casein and 1.0% human serum albumin, 37° C., read-out: hGIPR EC50, nM (SEM, n)), 0.833 nM; on hGIPR (setting [3]), 0.012 nM; at hGCGR (setting [4]) it was more than 9950 nM; at hGCGR (setting [5]), more than 9950 nM.
With `CC[C@H](C)[C@H](NC(=O)[C@H](CC(C)C)NC(=O)[C@](C)(Cc1ccc(O)cc1)NC(=O)[C@@H](CCC(=O)O)NC(=O)[C@@H](NC(=O)[C@H](Cc1ccccc1)NC(=O)[C@H](CCCCNC(=O)COCCOCCNC(=O)COCCOCCNC(=O)CC[C@H](NC(=O)CCCCCCCCCCCCC(=O)O)C(=O)O)NC(=O)C(C)(C)NC(=O)[C@H](CCC(N)=O)NC(=O)[C@H](C)NC(=O)[C@H](CCCCNC(=O)COCCOCCNC(=O)COCCOCCNC(=O)CC[C@H](NC(=O)CCCCCCCCCCCCC(=O)O)C(=O)O)NC(=O)[C@H](CCCN)NC(=O)[C@H](CC(=O)O)NC(=O)[C@H](CC(C)C)NC(=O)[C@](C)(CC(C)C)NC(=O)[C@@H](NC(=O)[C@H](CO)NC(=O)[C@H](Cc1ccc2ccccc2c1)NC(=O)[C@H](CC(=O)O)NC(=O)[C@H](CO)NC(=O)[C@@H](NC(=O)[C@](C)(Cc1ccccc1F)NC(=O)[C@@H](NC(=O)CNC(=O)[C@H](CCC(=O)O)NC(=O)C(C)(C)NC(=O)[C@@H](N)Cc1ccc(O)cc1)[C@@H](C)O)[C@@H](C)O)[C@@H](C)CC)[C@@H](C)CC)C(=O)N[C@@H](CCC(=O)O)C(=O)NCC(=O)NCC(=O)N1CCC[C@H]1C(=O)N[C@@H](CO)C(=O)N[C@@H](CO)C(=O)NCC(=O)N[C@@H](C)C(=O)N1CCC[C@H]1C(=O)N1CCC[C@H]1C(=O)N1CCC[C@H]1C(=O)N[C@@H](CO)C(N)=O` [Example 249], the concentration for a half-maximal effect (EC50) at hGLP-1R (0.1% bovine casein and 1.0% human serum albumin, 37° C., read-out: hGLP-1R EC50, nM (SEM, n)) is 51.6 nM; on hGLP-1R (setting [1]), 0.3 nM; at hGIPR (setting [3]) it was 0.0201 nM; on hGCGR (setting [4]) it was more than 9950 nM; on hGCGR (setting [5]), more than 9950 nM. Besides, on hGIPR (setting [2]), the Emax amounted to 88.9%.
